Test results published in patent US6642238B2, “Oxazolidinone thioamides with piperazine amide substituents” (Pharmacia and Upjohn Company, priority 2000, dated 2003).
≈ marks a conversion by molar mass, not a printed value.

Columns and labels:
[1] = system: Streptococcus pyogens (SPYO 152); assay: MIC by agar dilution, SPYO 152; format: cell-based; details: Streptococcus, Minimum Inhibitory Concentration, strain SPYO 152
Excerpt: (§1) The oxazolidinone antibacterial agents of this invention have useful activity against a variety of organisms. The in vitro activity of compounds of this invention can be assessed by standard testing procedures such as the determination of minimum inhibitory concentration (MIC) by agar dilution as described in “Approved Standard. Methods for Dilution Antimicrobial Susceptibility Tests for Bacteria That Grow Aerobically”, 3rd. ed., published 1993 by the National Committee for Clinical Laboratory Standards, Villanova, Pa., USA. The activity of compounds of this invention against Staphylococcus aureus, Staphylococcus epidermidis, Streptococcus pneumoniae, Streptococcus pyogens, Enterococcus faecalis, Moraxella catarrhalis and H. influenzae is shown in Table 1.

[2] = system: Enterococcus faecalis (EFAE 12712); assay: MIC by agar dilution, EFAE 12712; format: cell-based; details: Enterococcus faecalis, Minimum Inhibitory Concentration, strain EFAE 12712
Excerpt: as §1

[3] = system: Enterococcus faecalis (EFAE 9217); assay: MIC by agar dilution, EFAE 9217; format: cell-based; details: Enterococcus faecalis, Minimum Inhibitory Concentration, strain EFAE 9217
Excerpt: as §1

[4] = system: Moraxella catarrhalis (MCAT 30607); assay: MIC by agar dilution, MCAT 30607; format: cell-based; details: Moraxella catarrhalis, Minimum Inhibitory Concentration, strain MCAT 30607
Excerpt: as §1

[5] = system: Staphylococcus aureus (SAUR 9213); assay: MIC by agar dilution, SAUR 9213; format: cell-based; details: Staphylococcus aureus, Minimum Inhibitory Concentration, strain SAUR 9213
Excerpt: as §1

[6] = system: Streptococcus pneumoniae (SPNE 9912); assay: MIC by agar dilution, SPNE 9912; format: cell-based; details: Streptococcus pneumoniae, Minimum Inhibitory Concentration, strain SPNE 9912
Excerpt: as §1

[7] = system: H. influenzae (HINF 30063); assay: MIC by agar dilution, HINF 30063; format: cell-based; details: Haemophilus influenzae, Minimum Inhibitory Concentration, strain HINF 30063
Excerpt: as §1

[8] = system: Staphylococcus epidermidis (SEPI 30593); assay: MIC by agar dilution, SEPI 30593; format: cell-based; details: Staphylococcus epidermidis, Minimum Inhibitory Concentration, strain SEPI 30593
Excerpt: as §1

| SMILES | MIC [1] [µg/mL] | MIC [2] [µg/mL] | MIC [3] [µg/mL] | MIC [4] [µg/mL] | MIC [5] [µg/mL] | MIC [6] [µg/mL] | MIC [7] [µg/mL] | MIC [8] [µg/mL] | melting point |
| --- | --- | --- | --- | --- | --- | --- | --- | --- | --- |
| CCC(=S)NC[C@H]1CN(c2ccc(N3CCN(C(=O)[C@@H](O)CO)CC3)c(F)c2)C(=O)O1 [EX 16, N-({(5S)-3-[3-fluoro-4-[4-((2S)-2,3-dihydroxypropanoyl)-1-piperazinyl]phenyl]-2-oxo-1,3-oxazolidin-5-yl}methyl)propanethioamide] | 0.5 (≈ 1.1 µM) | 1 (≈ 2.2 µM) | 0.5 (≈ 1.1 µM) | 2 (≈ 4.4 µM) | 4 (≈ 8.8 µM) | 0.5 (≈ 1.1 µM) | 8 (≈ 17.6 µM) | 0.5 (≈ 1.1 µM) | 142 °C (dec.) |
| CCC(=S)NC[C@H]1CN(c2ccc(N3CCN(C(=O)[C@H](O)CO)CC3)c(F)c2)C(=O)O1 [EX 17, N-({(5S)-3-[3-fluoro-4-[4-((2R)-2,3-dihydroxypropanoyl)-1-piperazinyl]phenyl]-2-oxo-1,3-oxazolidin-5-yl}methyl)propanethioamide] | 0.5 (≈ 1.1 µM) | 1 (≈ 2.2 µM) | 0.5 (≈ 1.1 µM) | 2 (≈ 4.4 µM) | 4 (≈ 8.8 µM) | 0.25 (≈ 0.55 µM) | 8 (≈ 17.6 µM) | 0.5 (≈ 1.1 µM) | 132 °C (dec.) |
| CCC(=S)NC[C@H]1CN(c2ccc(N3CCN(C(=O)[C@@H](O)Cc4ccccc4)CC3)c(F)c2)C(=O)O1 [EX 19, N-[((5S)-3-{3-fluoro-4-[4-((2S)-2-hydroxy-3-phenylpropanoyl)-1-piperazinyl]phenyl}-2-oxo-1,3-oxazolidin-5-yl)methyl]propanethioamide] | 1 (≈ 1.94 µM) | 2 (≈ 3.89 µM) | 2 (≈ 3.89 µM) | 8 (≈ 15.5 µM) | 2 (≈ 3.89 µM) | < 0.5 | > 64 | 2 (≈ 3.89 µM) | 174 to 175 °C |
| CCC(=S)NC[C@H]1CN(c2ccc(N3CCN(C(=O)[C@H](O)Cc4ccccc4)CC3)c(F)c2)C(=O)O1 [EX 20, N-[((5S)-3-{3-fluoro-4-[4-((2R)-2-hydroxy-3-phenylpropanoyl)-1-piperazinyl]phenyl}-2-oxo-1,3-oxazolidin-5-yl)methyl]propanethioamide] | 1 (≈ 1.94 µM) | 1 (≈ 1.94 µM) | 1 (≈ 1.94 µM) | 4 (≈ 7.77 µM) | 1 (≈ 1.94 µM) | < 0.5 | 64 (≈ 124 µM) | 1 (≈ 1.94 µM) | 128 to 130 °C (dec.) |
